The values that follow come from patent US10172911B2, “Methods of modulating erythropoiesis with arginine vasopressin receptor 1B molecules” (The United States of America, as represented by the …, priority 2013, dated 2019).

One test deals with mice. The test can be described thus: Peripheral blood values following EPO vs. AVP injections in hemorrhage. The format is in vivo, mouse. On the procedure:
AVP (100 μg/kg bodyweight) or EPOetin alfa (50 U/bodyweight, EPOgen) was administered intra-peritoneally to mice, immediately following hemorrhage. […] Hematocrit and reticulocyte counts were measured at different time points.

The subject of another test is BM erythroid cells. Put plainly: Bone marrow erythroid populations after injection of AVP, AVPR1B agonist or EPO (flow cytometry, EdU). The class given is in vivo, mouse. On the procedure:
In vivo AVP-treated/hemorrhaged/control mice were IP injected with 10 μM/1000 g BW 5-ethynyl-2′-deoxyuridine (EdU: Life Technologies) for 2 hours. Single cell suspensions from the tibial and femoral bone marrows of mice (n=5 in each group) were prepared. After lysing the cells with ACK buffer, cells of the erythroid lineage were labeled with antibodies against TER-119 (BD Pharmingen) and CD71 (BD Pharmingen) or CD44 (BD Pharmingen) conjugated with FITC or PE fluorophores. After washing with FACS buffer, cells were fixed/permeabilized according to the manufacturer's recommendation (Life Technologies). Incorporated EdU molecules were visualized by a click reaction with Alexa Fluor 647-conjugated picolyl-azide and cell nuclei were stained with DAPI. Cell cycle characteristics of erythroid cells were detected with a Beckman-Coulter MoFlo Astrios flow cytometer.
For lineage negative, Sca-1 positive and c-kit positive (LSK) cell sorting, rat anti-mouse lineage antibodies (anti CD4, CD8, B220, Ter119, Gr-1, CD11b) were added to bone marrow cell suspension after ACK lysis and cells were depleted using anti-rat magnetic beads (Biomag anti rat IgG, Qiagen). Lineage negative cells were stained with c-kit PE/Cy5 and Sca-1-FITC antibodies and the double positive population was further enriched with anti-PE and anti-FITC magnetic beads (Miltenyi). LSK cells were sorted on a DAKO Cytomation MoFlo cell sorter. For LSK subpopulation sorting lineage depleted cells were stained for c-kit, Sca-1, CD48, CD150 and CD34 and 4 LSK subpopulations were sorted using the gating strategy described by Wilson et al. (34). Sorted cells from HSC (LSK, CD34^−, CD48^−, CD150^+), MPP1 (LSK, CD34^+, CD48^−, CD150^+), MPP2 (LSK, CD34^+, CD48^+, CD150^+) and MPP3/4 (LSK, CD34^+, CD48^+, CD150^−) subpopulations were plated in 1×PBS onto coated glass slides fixed with 2% PFA and immunostained for AVPR1B. Erythropoietic progenitors were sorted based on CD71 and Ter119 markers. All cells were sorted using a MoFlo Astrios cell sorter (Beckman Coulter). Competitive Repopulation Assay
The inventors determined that AVP induced a fast hematocrit response in severe anemia that is independent of EPO. AVP receptors in the HSPCs was confirmed and they next decided to examine how AVP affects the erythroid lineage cells (developmental stages) in the BM. […] In cell populations sorted as above, the presence of AVPR1B and EPO receptor (EPOR) mRNA using QPCR was also determined. […] AVPR2 mRNA was detected in all populations, whereas AVPR1A mRNA was barely detectable.
Background: A flow cytometer gives signals particle by particle.

In the next test the test system is Human BMSCs. The test can be described thus: BMSC signalling (ERK phosphorylation, cAMP, intracellular Ca2+). The settings on record: BMSC cultures. The format is cell-based.
The next test concerns Wnt pathway. The test can be described thus: Q-PCR and microarray of Wnt pathway genes in AVP-stimulated CD34+ cells. The class given is cell-based, human. The source says:
FIGS. 3A-3D show studies of signaling pathways. FIG. 3A provides results from CFU assays showing E-CFU and GM-CFU numbers/1000 plated cells. […] Error bars represent means±SD * p<0.05, ** p<0.01, unpaired t-test. […] The cells were then fixed with 4% paraformaldehyde and washed before immunostaining. Following permeabilization with Triton-X 100 a primary antibody to β-catenin was applied followed by a fluorescent secondary antibody. The β-catenin translocated to the nucleus at the 10^−10 AVP concentration confirming the activation of the Wnt pathway. Scale: 10 μm. […] Using Q-PCR to detect changes in genes that reflect Wnt pathway activation, increases in CCND1, MYC and LEF1 in response to AVP stimulation were observed.
The resultant cDNA was amplified with QuantiTect SYBR Green RT-PCR kit (Qiagen) or with SYBR Green Supermix (Bio-Rad, Hercules, Calif.). For qPCR, cDNA (2 μls of cDNA for AVP expression and […] for OXT or beta-actin expression) was amplified with QuantiTect SYBR Green RT-PCR kit and the expression data were normalized to human beta-actin expression.

For a further test, the system named is C57BL6 male mice. Put plainly: Hemorrhage anemia model, Alzet pump delivery. The format is in vivo, mouse. On the procedure: Mice were anesthetized with isoflurane. Twenty five percent of their calculated circulating blood volume (calculated based on Animal Research Advisory Committee Guidelines for survival bleeding of mice and rats, OACU, NIH) was drained from the retro-orbital plexus.
The reticulocyte ratio of peripheral blood was determined using the Retic-Count flow kit (BD Biosciences) according to the manufacturer's instructions. Hematocrit values were measured with an automated analyzer and microhematocrit tubes. The reticulocyte index was calculated as follows: reticulocyte ratio %/total gated cells×hematocrit/45.
To infuse vasopressin into the mice, AVP filled ALZET pumps were implanted subcutaneously on the dorsal aspect of the neck (5 ug/day, Alzet 1007D—7 days, 2002-14 days). Vasopressin was also given immediately and 6 hours later as a bolus injection (100 μg/kg). Alzet pumps were inserted subcutaneously. The dimensions and pump specification are: ALZET, (DURECT Corporation, Cupertino, Calif., USA) mini-osmotic pump models 1007D or 2002. The pumps deliver 0.5 μl/h of the desired substance for a for 2-week period. In some cases, erythropoietin antibody (100 μg/mice) was given before anesthesia with the corresponding control antibody. […] Following the initial hemorrhage blood samples were taken at 2, 4 and in some cases 6 days later to determine hematocrit and corrected reticulocyte values.

[1] abbreviates: AVP stimulated CD34+ cells vs control cells.

“Also recorded” adds a separate entry of the source.

Method for Human BMSCs: Human BMSCs were loaded with Fura-2 and the cells were stimulated with AVP, or OXT.
For cAMP quantitation, 8×10^5 per well human BMSCs were plated in 6 well plates and left to attach overnight. Next day, the medium was changed and the cells were stimulated with AVP or deamino-Cys^1, D-Arg^8 AVP (DDAVP, a V2 receptor agonist) at 10^−6 M for 4 minutes. Cells were washed with PBS and lysed with R&D cell lysis buffer. Cyclic AMP was measured with the R&D cAMP Parameter assay kit (R&D Systems, Minneapolis, Minn.) according to manufacturer's instructions. Total protein concentrations of the cell lysates were measured using the Micro BCA Protein Assay kit (Pierce, Rockford, Ill.) and cAMP amount was normalized to 100 μg of total protein.

Take `NC(=O)CC[C@@H]1NC(=O)[C@H](Cc2ccccc2)NC(=O)[C@H](Cc2ccc(O)cc2)NC(=O)[C@@H](N)CSSC[C@@H](C(=O)N2CCC[C@H]2C(=O)N[C@@H](CCCN=C(N)N)C(=O)NCC(N)=O)NC(=O)[C@H](CC(N)=O)NC1=O` [AVP, [Arg8]-Vasopressin]: the “increase in hematocrit compared to PBS” value with mice (AVP 100 μg/kg i.p. just after hemorrhage) is “only statistically significant at 12 and 24 hours; also recorded: significant increase in hematocrit 12 hours following the insult”. Also, the “differences in hematocrit between EPO and AVP” value in the test with mice (after hemorrhage) was “significant at 6, 12 and 24 hours and disappeared 5 days after hemorrhage”. The “BM erythroid progenitors (Ter-119, CD 71 gated area)” value in the test on BM erythroid cells (16 hours after injection) is listed as “clear increase in progenitors”. Besides, in the test on BM erythroid cells (EdU, Annexin V and DAPI), the “apoptosis in the late progenitor populations” value is recorded as “significant decrease in apoptosis”. The “effect on more matured erythroid populations” value with BM erythroid cells (after hemorrhage, AVP vs EPO) was “much more robust effect than EPO”. Moreover, in the test with BM erythroid cells (bone marrow, flow cytometry), the “numbers of more mature erythroid cells (polychromatic and orthochromatic erythroblasts/reticulocytes)” value is listed as “significantly increased”. The ERK phosphorylation entry in the test on Human BMSCs is “induced ERK phosphorylation”. The “cyclic AMP” value in the test on Human BMSCs (10^−6 M for 4 minutes) is given as “increase in cyclic AMP”. Besides, in the test with Wnt pathway (setting [1]), the “LEF1 RNA” value was “an increase (statistically not significant)”, the “MYC RNA” value is listed as “significantly more” and the “cyclin D1 (CCND1) RNA” value was “significantly more”. In addition, in the test with Wnt pathway (single microarray study), the “difference in Wnt pathway genes (CDON, DKK1, DPP10, FZD7 up; CDKN2A, FST, KLF5 down)” value is given as “over two-fold difference”. Moreover, in the test with C57BL6 male mice (2 days post hemorrhage), the corrected reticulocyte numbers result is “significant increase; also recorded: had increased” and the hematocrit entry is “significant increase”. Further, in the test on C57BL6 male mice (4 days post hemorrhage), the hematocrit result is recorded as “significantly higher hematocrit”. Also, the “number of highly fluorescent (high intensity) reticulocytes” value with C57BL6 male mice (anemia models, FACS with thiazol orange) is listed as “significantly increased”. For the same molecule, the hematocrits entry in the test with C57BL6 male mice (between days 2 and 4 after removal of 25% of blood volume) is on record as “also increased”. Also, the recovery times result in the test with C57BL6 male mice (hemorrhage, FIG. 9D) is on record as “significantly improved recovery times”.
